Experimental data taken from US11046699B2, “Pyrazolo-pyrimidin-amino-cycloalkyl compounds and their therapeutic uses” (RAPT THERAPEUTICS, INC., priority 2018, dated 2021).
Like-named read-outs stand apart in the source and are kept apart here.

Target: GCN2 (Homo sapiens, UniProt Q9P2K8)
Test: GCN2 enzymatic endpoint assay: phosphorylation of GFP-eIF2α measured by TR-FRET (Lanthascreen)
Format: biochemical
Summary of the method: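 Reaction started with 2 μM ATP and 80 nM GFP-labelled eIF2α substrate at room temperature, stopped with EDTA after 90 minutes. Phospho-eIF2α detected by terbium-labelled antibody TR-FRET; activity taken as 520 nm (fluorescein) to 495 nm (terbium) emission ratio.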

Sequence of GCN2 (Q9P2K8 whole entry): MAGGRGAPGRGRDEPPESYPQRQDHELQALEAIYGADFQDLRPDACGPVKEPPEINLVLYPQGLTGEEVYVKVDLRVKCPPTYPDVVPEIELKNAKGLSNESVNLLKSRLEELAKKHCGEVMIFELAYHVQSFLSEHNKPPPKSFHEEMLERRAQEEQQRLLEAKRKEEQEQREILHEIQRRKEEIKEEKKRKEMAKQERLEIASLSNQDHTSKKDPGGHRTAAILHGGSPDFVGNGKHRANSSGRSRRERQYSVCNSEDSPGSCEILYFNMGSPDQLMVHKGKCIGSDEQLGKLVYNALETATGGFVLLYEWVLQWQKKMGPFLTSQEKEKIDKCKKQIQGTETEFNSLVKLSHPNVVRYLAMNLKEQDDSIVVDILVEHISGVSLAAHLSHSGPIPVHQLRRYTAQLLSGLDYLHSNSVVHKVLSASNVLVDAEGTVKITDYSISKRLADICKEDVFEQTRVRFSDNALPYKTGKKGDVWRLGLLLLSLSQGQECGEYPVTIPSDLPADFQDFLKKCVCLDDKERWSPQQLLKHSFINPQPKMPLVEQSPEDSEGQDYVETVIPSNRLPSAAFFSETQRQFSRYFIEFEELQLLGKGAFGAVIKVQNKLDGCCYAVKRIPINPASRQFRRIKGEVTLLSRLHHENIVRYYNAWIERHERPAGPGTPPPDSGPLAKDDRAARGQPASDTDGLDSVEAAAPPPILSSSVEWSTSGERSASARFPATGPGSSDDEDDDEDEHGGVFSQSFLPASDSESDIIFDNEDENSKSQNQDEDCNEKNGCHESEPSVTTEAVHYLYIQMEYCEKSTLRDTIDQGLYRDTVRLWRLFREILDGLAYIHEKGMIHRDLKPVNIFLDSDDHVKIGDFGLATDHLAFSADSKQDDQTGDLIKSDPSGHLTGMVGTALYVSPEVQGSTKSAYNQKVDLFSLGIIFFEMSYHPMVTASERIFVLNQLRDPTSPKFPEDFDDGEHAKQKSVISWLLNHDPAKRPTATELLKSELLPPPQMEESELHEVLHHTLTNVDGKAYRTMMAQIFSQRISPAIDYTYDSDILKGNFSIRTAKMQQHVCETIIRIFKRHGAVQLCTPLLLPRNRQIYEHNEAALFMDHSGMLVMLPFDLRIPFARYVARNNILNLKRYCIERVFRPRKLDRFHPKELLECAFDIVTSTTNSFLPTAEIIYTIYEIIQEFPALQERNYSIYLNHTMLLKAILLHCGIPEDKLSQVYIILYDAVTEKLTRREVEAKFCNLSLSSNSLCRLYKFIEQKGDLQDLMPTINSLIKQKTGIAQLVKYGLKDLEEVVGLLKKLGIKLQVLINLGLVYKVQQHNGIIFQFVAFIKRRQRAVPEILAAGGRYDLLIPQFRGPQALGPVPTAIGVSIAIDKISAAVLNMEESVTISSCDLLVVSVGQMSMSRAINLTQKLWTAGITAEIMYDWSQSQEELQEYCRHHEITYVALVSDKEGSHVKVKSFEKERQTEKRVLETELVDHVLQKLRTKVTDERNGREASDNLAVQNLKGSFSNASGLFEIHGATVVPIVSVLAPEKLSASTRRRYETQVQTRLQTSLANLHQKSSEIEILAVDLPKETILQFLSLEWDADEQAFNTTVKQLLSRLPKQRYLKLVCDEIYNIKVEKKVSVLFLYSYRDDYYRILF

| IC50 (tested as described in Example 77, compound and/or hydrochloride, dihydrochloride or trifluoroacetic acid salt, read-out: IC 50 Activity) | IC50 (GCN2 biochemical IC50, 4 nM GCN2, 2 μM ATP, 80 nM GFP-eIF2α, 90 min RT, read-out: GCN2 activity) | SMILES |
| --- | --- | --- |
| 25 to 200 nM |  | CNC(=O)C1(C)CC[C@@H](Nc2ncc3c(Br)nn(-c4cc(OC(F)(F)F)cc(C(C)O)c4)c3n2)C1 (stereo partly drawn) [(3R)-3-[[3-bromo-1-[3-(1-hydroxyethyl)-5-(trifluoromethoxy)phenyl]pyrazolo [3,4-d]pyrimidin-6-yl]amino]-N,1-dimethyl-cyclopentanecarboxamide] |
|  | 200 to 500 nM | COCCNC(=O)[C@@H]1CC[C@@H](Nc2ncc3c(Br)nn(-c4ccc(-c5cccnc5)cc4)c3n2)C1 [Example 24, (1R,3R)-3-((3-bromo-1-(4-(pyridin-3-yl)phenyl)-1H-pyrazolo[3,4-d]pyrimidin-6-yl)amino)-N-(2-methoxyethyl)cyclopentane-1-carboxamide] |
